Active and inactive are the calls of the source. The calls are words filed in the database; no cut-off is given here.
Legend:
HepG2 [1] = experiment: Antiproliferative activity against human HepG2 cells assessed cell survival after 24 hrs by alamarBlue assay; format: functional, cell-based
HepG2 [2] = experiment: Cytotoxicity against human HepG2 cells assessed cell survival after 24 hrs at 10 uM by alamarBlue assay; format: functional, cell-based
HepG2 [3] = experiment: Cytotoxicity against human HepG2 cells assessed cell death after 24 hrs at 1 uM by alamarBlue assay relative to control; format: functional; conditions: HepG2, 24 h
HepG2 [4] = experiment: Cytotoxicity against human HepG2 cells assessed cell death after 72 hrs at 2 uM by alamarBlue assay relative to control; format: functional; conditions: HepG2, 72 h
HepG2 [5] = experiment: Cytotoxicity against human HepG2 cells assessed cell death after 72 hrs at 3 uM by alamarBlue assay relative to control; format: functional; conditions: HepG2, 72 h
HepG2 [6] = experiment: Cytotoxicity against human HepG2 cells assessed cell death after 72 hrs by alamarBlue assay relative to control; format: functional, cell-based; conditions: HepG2, 72 h
HepG2 [7] = experiment: Drug metabolisam in human HepG2 cells assessed as indirubin 3'-(O-2,3-dihydroxypropyl)oxime formation at 1 uM by mass spectrometry; format: ADME, cell-based; conditions: hepg2, 1 µM
HepG2 [8] = experiment: Cytotoxicity against human HepG2 cells assessed cell survival rate after 24 hrs at 2 uM by alamarBlue assay relative to control; format: functional
HepG2 [9] = experiment: Cytotoxicity against human HepG2 cells assessed cell survival rate after 72 hrs at 2 uM by alamarBlue assay relative to control; format: functional
[10] = Retention time of the compound by HPLC chromatogram; format: physicochemical
HepG2 [11] = experiment: Drug formation in human HepG2 cells treated at 1 uM Epox/Ind by mass spectrometry; format: ADME, cell-based; conditions: hepg2, 1 µM
[12] = Homo sapiens, HepG2, 24 h, read-out: IC50

| Retention_time [10] | Compound | IC50 (HepG2 [1]; [12]) | inhibition at 2 µM (HepG2 [4]) | inhibition at 3 µM (HepG2 [5]) | IC50 (HepG2 [6]) | other results |
| --- | --- | --- | --- | --- | --- | --- |
|  | O=C1Nc2ccccc2/C1=C1/Nc2ccccc2/C1=N\O | 15000 nM |  |  |  |  |
|  | O=C1Nc2ccccc2/C1=N\OCC1CO1 (stereo not drawn) |  |  |  |  | Activity (HepG2 [2]): inactive |
| 4.3 min | O=C1Nc2ccccc2/C1=C1/Nc2ccccc2/C1=N\OCC1CO1 (stereo not drawn) | 1700 nM | 31% | 89% | 2300 nM | inhibition at 1 µM (HepG2 [3]): 25%; Drug metabolism (HepG2 [7]): metabolite_detected; Activity (HepG2 [8]): 69%; Activity (HepG2 [9]): 44% |
| 3.392 min | O=C1Nc2ccccc2/C1=C1/Nc2ccccc2/C1=N\OCC(O)CO (stereo not drawn) | 2100 nM | 15% | 58% | 2800 nM | Drug metabolism (HepG2 [11]): metabolite_detected |
|  | O=C1Nc2ccccc2/C1=C1/Nc2ccccc2C1=O [INDIRUBIN] |  |  |  |  | IC50 (HepG2 [1]; hepg2): Not Active |
